Key:
[1] = system: ligand-binding protein (in this example, an antibody); experiment: Panning of phage-displayed peptide library against a ligand-binding protein (antibody), protein A-coated dishes; conditions: phage-expressed peptide, compared with the general phage population
[2] = Solubility of the secreted expressed peptide
Description: The oligonucleotide encoding this peptide is cloned into a vector that allowed secretion of the expressed peptide. The peptide […]

Sequence | ligand binding affinity [1] | soluble at a concentration of [2] [mg/mL]
CDDQYYTDHEQGKCEVALYYTG [SEQ. ID. NO.: 63, peptide selected from phage library] | high affinity | –
TQSKCSTDHWLGYIEYFIMCTY [SEQ. ID. NO.: 62] | highest affinity | ≥ 4

— patent US5770434A, “Soluble peptides having constrained, secondary conformation in solution and method of making same” (IXSYS Incorporated, priority 1995, dated 1998)
